Test results taken from patent US11090313B2, “Methods for inhibiting muscle atrophy” (UNIVERSITY OF IOWA RESEARCH FOUNDATION, priority 2010, dated 2021).
“Also recorded” adds a separate entry of the source.

Columns and labels:
Format in all cases: in vivo, mouse
C57BL/6 mice = assay: Fasting-induced muscle atrophy in mice (i.p. dosing, 24 h fast); settings: for skeletal muscle weight in fasted mice (fasting-induced muscle atrophy) / fasting blood glucose: i.p. at 0 and 12 h of 24 h fast; for skeletal muscle weight in fasted mice (fasting-induced muscle atrophy): vs vehicle, mg/kg: ursolic acid 200, oleanolic acid 200, metformin 250, tomatidine 50, allantoin 2, tacrine 4, ungerine 2, hippeastrine 2, conessine 2; for fasting blood glucose: mice, mg/kg: metformin 250, ursolic acid 200, hippeastrine 2, conessine 2
Method: The mice were then fasted, and after 12 hours of fasting, the mice received a second dose of the compound or vehicle. After 24 hours of fasting, the blood glucose was measured and muscles were harvested. The data shown in FIGS. 6C-6H are means±SEM from ≤16 mice per condition. […] The effects of metformin and ursolic acid on fasting-induced muscle atrophy were also examined, i.e. the effect of 24 h fast (relative to ad lib feeding) on wet weight of lower hindlimb skeletal muscle (bilateral tibialis anterior (“TA” muscle), gastrocnemius, and soleus; see FIGS. 6E-6G). […] In FIGS. 6E-6H, each data point represents one mouse and the horizontal bars denote the means. In FIGS. 6C-6H, P-values were determined using unpaired t-tests.
Mice were then fasted, and after 12 hours of fasting, mice received a second dose of ursolic acid, oleanolic acid, or vehicle. After 24 hours of fasting, lower hindlimb skeletal muscles and liver were harvested and weighed.
To test this, food was withdrawn from mice, and then vehicle, ursolic acid (200 mg/kg) or tomatidine (50 mg/kg) were administered by i.p. injection. Twelve hours later, mice received another i.p. injection of vehicle or the same dose of ursolic acid or tomatidine. Twelve hours later, skeletal muscles were harvested and weighed. […] We next used the same protocol to compare the effects of vehicle (corn oil) and tomatidine (5, 15 and 50 mg/kg).

mice [1] = assay: Immobilization-induced skeletal muscle atrophy model (stapled tibialis anterior); settings: for immobilization-induced muscle atrophy (weights of immobile vs mobile TA): 2 days before and 6 days after immobilization, ursolic acid and betulinic acid varying doses, naringenin 200 mg/kg, tomatidine 5-200 mg/kg
Method: To test this, a mouse model of immobilization-induced skeletal muscle atrophy was used: mice were administered vehicle (corn oil) or varying doses of ursolic acid (positive control) or betulinic acid via intraperitoneal injection twice a day for two days. One tibialis anterior (TA) muscle was immobilized with a surgical staple, leaving the contralateral mobile TA as an intra-subject control. The vehicle or the same dose of ursolic acid or betulinic acid was continuously administered via i.p. injection twice daily for six days before comparing weights of the immobile and mobile TAs.
To test this, mice were administered vehicle (corn oil), ursolic acid (200 mg/kg), naringenin (200 mg/kg), or the combination of ursolic acid and naringenin (each at 200 mg/kg) via i.p injection twice a day for two days. One tibialis anterior (TA) muscle was immobilized with a surgical staple, leaving the contralateral mobile TA as an intrasubject control. Vehicle or the same doses of ursolic acid and/or naringenin was continuously administered via i.p. injection twice daily for six days before comparing weights of the immobile and mobile TAs.
To test this, mice were administered vehicle (corn oil) or tomatidine (50, 100 or 200 mg/kg) via i.p injection twice a day for two days. One tibialis anterior (TA) muscle was immobilized with a surgical staple, leaving the contralateral mobile TA as an intrasubject control. Vehicle or the same doses of tomatidine was administered via i.p. injection twice daily for six days before comparing weights of the immobile and mobile TAs. […] The same protocol was used to compare the effects of vehicle (corn oil) and tomatidine (5, 15 or 50 mg/kg) on immobilization-induced muscle atrophy.

mice [2] = assay: High fat diet with ursolic acid and/or naringenin; settings: HFD with ursolic acid 0.15% and/or naringenin 0.5% or 1.5%, 5 weeks
Method: To determine this, weight-matched mice were provided ad libitum access to standard (Harlan Teklad formula 7013), high fat diet (HFD; Harlan Teklad formula TD93075), or HFD containing varying concentrations of ursolic acid (0.15%) and/or naringenin (0.5% or 1.5%). After the mice consumed these diets for 5 weeks, fasting blood glucose, total body weight, fat mass, liver weight, grip strength, and skeletal muscle weight was measured.

Row | Structure (SMILES) | skeletal muscle weight in fasted mice (fasting-induced muscle atrophy) (C57BL/6 mice) | fasting blood glucose (C57BL/6 mice) | other results
1 | NC(=O)NC1NC(=O)NC1=O (stereo not drawn) [allantoin] | increased muscle weight in fasted mice; also recorded: reduce fasting-induced muscle atrophy | – | –
2 | C[C@H]1[C@H]2CC[C@H]3[C@@H]4CC=C5C[C@@H](N(C)C)CC[C@]5(C)[C@H]4CC[C@]23CN1C [conessine] | increased muscle weight in fasted mice; also recorded: reduce fasting-induced muscle atrophy | reduce fasting blood glucose | –
3 | CN1CCC2=C[C@@H](O)[C@@H]3OC(=O)c4cc5c(cc4[C@@H]3[C@H]21)OCO5 [hippeastrine] | increased muscle weight in fasted mice; also recorded: reduce fasting-induced muscle atrophy | reduce fasting blood glucose | –
4 | CN(C)C(=N)N=C(N)N [metformin, reference compound] | did not alter muscle weight; also recorded: do not reduce skeletal muscle atrophy | significantly reduced fasting blood glucose | –
5 | O=C1CC(c2ccc(O)cc2)Oc2cc(O)cc(O)c21 (stereo not drawn) [naringenin] | – | – | immobilization-induced muscle atrophy (weights of immobile vs mobile TA) (mice [1]; i.p. twice daily): reduced muscle atrophy; also recorded: reduces immobilization-induced skeletal muscle atrophy; fasting blood glucose in high fat fed mice (mice [2]): partially prevented
6 | CC1(C)CC[C@]2(C(=O)O)CC[C@]3(C)C(=CC[C@@H]4[C@@]5(C)CC[C@H](O)C(C)(C)[C@@H]5CC[C@]43C)[C@@H]2C1 [oleanolic acid, reference compound] | do not reduce skeletal muscle atrophy | – | –
7 | Nc1c2c(nc3ccccc13)CCCC2 [tacrine, reference compound] | increased muscle weight in fasted mice; also recorded: reduce fasting-induced muscle atrophy | – | –
8 | C[C@H]1CC[C@]2(NC1)O[C@H]1C[C@H]3[C@@H]4CC[C@H]5C[C@@H](O)CC[C@]5(C)[C@H]4CC[C@]3(C)[C@H]1[C@@H]2C [tomatidine] | increased skeletal muscle; also recorded: increased muscle weight in fasted mice; also recorded: reduces fasting-induced muscle atrophy | – | dose of maximal effect on fasting-induced muscle atrophy (C57BL/6 mice; tomatidine 5, 15 and 50 mg/kg i.p. twice, 24 h fast): 50 mg/kg; dose of maximal inhibition of immobilization-induced muscle atrophy (mice [1]; i.p. twice daily): 50 mg/kg; potency relative to ursolic acid in immobilization-induced muscle atrophy (mice [1]; i.p. twice daily): more potent than ursolic acid; immobilization-induced muscle atrophy (weights of immobile vs mobile TA) (mice [1]; i.p. twice daily): reduced muscle atrophy; also recorded: reduces immobilization-induced muscle atrophy; EC50, reduction of immobilization-induced muscle atrophy (mice [1]; tomatidine 5, 15 or 50 mg/kg i.p. twice daily): < 5 mg/kg
9 | CO[C@@H]1C=C2CCN(C)[C@@H]2[C@H]2c3cc4c(cc3C(=O)O[C@H]21)OCO4 [ungerine] | increased muscle weight in fasted mice; also recorded: reduce fasting-induced muscle atrophy | – | –
